System: Human Lung Cancer Cell Line A-549
Experiment: Growth inhibition (% control growth, LC50, TGI, GI50) A-549
Assay type: cell-based
Settings: Homo sapiens, A549, read-out: LC50, A-549; Molar drug concentrations calculated from graph
Method: The therapeutic effect of SA1 (peak 5) and SA2 (peak 4) is evaluated against human lung cancer cell line A-549 by calculating the percentage growth inhibition, drug concentration of test compound needed to inhibit cell growth by 50% (GI50) values.
The therapeutic effect of SACC is evaluated against human lung cancer cell line A-549 by calculating the percentage growth inhibition, drug concentration of test compound needed to inhibit cell growth by 50% (GI50) values.

SMILES: COc1cccc2c1C(=O)c1c(O)c3c(c(O)c1C2=O)C[C@@](O)(C(=O)CO)C[C@@H]3O[C@H]1C[C@H](N)[C@H](O)[C@H](C)O1 [ADR, Adriamycin]
- LC50: 143 µM

From US20260224524A1, “A PHARMACEUTICAL COMPOSITION TARGETING MUTANT P53 AND HER2” (DR DOZO LABORATORIES, priority 2023, published 2026)
